Test results as given in patent US20050164259A1, “Sequences” (priority 2001, published 2005).

How the values were obtained:
Rhizoctonia solani = experiment: Agar plate inhibition zone test (PDA), microthecin solutions; format: cell-based; conditions: judged after 2-3 days of growth
Protocol: (§1) Basic microthecin solution: 24 mg/ml Batch no. Mic20011016
(§2) All solutions were filtered through a 0.22 μm filter for sterilisation.
(§3) A circular plug (diameter 10 mm) of fresh mycelium was placed at the centre on a petri-dish (diameter 9 cm) containing PDA medium. (PDA=Potato dextrose agar Difco no. 213400). Wells with a diameter of 5 mm were cut along the periphery of the agar plate. In each well were placed 50 μl of a test solution. Alternatively, 20 μl of each test solution were placed directly on the agar along the periphery of the plate. Also, 50 μl of each test solution were placed directly on top of the fungal mycelium plug.
(§4) The agar plates were placed at room temperature in daylight, but protected from direct sunlight.
(§5) The reaction (inhibition zones) of the fungi to the test substance was judged as follows: […]

Aphanomyces cochlioides [1] = experiment: as above; format: cell-based; conditions: judged after 3-4 days of growth
Protocol: as §1, §2, §3, §4, §5

Cercospora beticola = experiment: as above; format: cell-based; conditions: judged after 3-4 weeks of growth
Protocol: as §1, §2, §3, §4, §5

Pythium ultimum = experiment: as above; format: cell-based; conditions: judged after 1-2 days of growth
Protocol: as §1, §2, §3, §4, §5

Aphanomyces = experiment: Field emergence trial FEHCPO34 Aphanomyces, pelleted sugar beet seeds; format: in vivo; conditions: pellets containing the substance; in words
Description: Based on these findings, the efficiency of microthecin was further investigated in a field emergence trial. The trial was sown relatively late giving it a higher chance for presence of the pathogen Aphanomyces in the trial field.
(§6) Seeds were pelleted with standard P1 pelleting mass with (1,2) or without (7,8)Thiram.
(§7) Inner coating: 0.3 gai/U microthecin as a 0.5% solution in water or • 14.7 gai/U Hymexazol. • 60 gai/U Imidacloprid.
(§8) Standard metallic green seed cover film.
Trial place Bukkehave, D K. (4 reps, 200 seeds/plot)

Aphanomyces cochlioides [2] = experiment: Example 4 screening for growth inhibition on agar plates; format: cell-based; conditions: very low concentrations; wells on PDA-agar plates, 3-5 days
Protocol: The effect of microthecin on the plant pathogenic fungi Pythium ultimum, Rhizoctonia solani and Aphanomyces cochlioides in vitro was investigated by screening for growth inhibition of the pathogens on agar-plates (FIGS. 6, 7, 8).
(§9) In each case, microthecin was dissolved in water and placed in wells in the periphery. An agar block containing the pathogen was placed in the centre. The pathogens were allowed to grow out on the PDA-agar plates for 3-5 days.

[3] = system: Bacillus (B. Pumilus DS96.734, B. megaterium DS98.124); experiment: Example 4 similar tests with other microorganisms; format: cell-based
Protocol: as §9

[4] = system: Pseudomonads (P. fluorescens DS96.578, P. mendocina DS98.124); experiment: Example 4 similar tests with other microorganisms; format: cell-based
Protocol: as §9

sugar beet seeds = experiment: Laboratory germination of pelleted sugar beet seeds; format: in vivo; conditions: in words
Description: as §6, §7, §8

[5] = target: T1, pyranosone dehydratase (PD) (Phanerodontia chrysosporium, UniProt P84193); experiment: Conversion of AF or glucosone by pyranosone dehydratase, monitored at 226 nm; format: biochemical, Phanerochaete chrysosporium; conditions: for OD 226 nm using substance as substrate: 22° C., 5.5 hours
T1 construct: The cell-free extract of Phanerochaete crysosporium was brought up to 55% ammonium sulphate saturation; endogenous in cells; host or cells: Phanerochaete chrysosporium ATCC 32629 and ATCC 24725; Native enzyme purified from cell-free extract by ammonium sulphate fractionation, then the procedure of Gabriel et al. 1993
T1 sequence (P84193 8-900 limits assumed): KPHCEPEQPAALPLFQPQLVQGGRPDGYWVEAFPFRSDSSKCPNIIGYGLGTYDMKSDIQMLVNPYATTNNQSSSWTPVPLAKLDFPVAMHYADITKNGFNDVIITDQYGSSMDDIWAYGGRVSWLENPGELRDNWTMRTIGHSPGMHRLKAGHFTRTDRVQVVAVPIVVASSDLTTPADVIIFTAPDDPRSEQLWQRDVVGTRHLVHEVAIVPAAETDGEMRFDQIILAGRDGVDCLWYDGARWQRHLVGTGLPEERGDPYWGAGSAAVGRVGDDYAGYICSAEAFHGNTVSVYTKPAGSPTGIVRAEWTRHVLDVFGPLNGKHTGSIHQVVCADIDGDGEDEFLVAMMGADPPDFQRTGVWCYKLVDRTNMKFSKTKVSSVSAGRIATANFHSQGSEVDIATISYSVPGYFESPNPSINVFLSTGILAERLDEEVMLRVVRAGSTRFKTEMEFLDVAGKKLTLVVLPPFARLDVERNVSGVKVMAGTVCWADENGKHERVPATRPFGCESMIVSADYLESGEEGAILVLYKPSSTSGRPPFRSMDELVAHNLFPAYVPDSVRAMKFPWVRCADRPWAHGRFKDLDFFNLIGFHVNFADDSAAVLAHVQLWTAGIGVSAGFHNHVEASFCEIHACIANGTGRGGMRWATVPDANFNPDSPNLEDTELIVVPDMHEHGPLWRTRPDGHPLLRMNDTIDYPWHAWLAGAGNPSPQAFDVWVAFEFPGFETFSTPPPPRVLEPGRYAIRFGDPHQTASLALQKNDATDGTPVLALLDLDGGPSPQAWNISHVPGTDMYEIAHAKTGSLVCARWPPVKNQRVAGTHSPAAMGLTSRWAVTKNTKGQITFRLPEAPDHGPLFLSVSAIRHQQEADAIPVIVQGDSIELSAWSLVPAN

[6] = final substrate concentration 13.7 μg/ml reaction mixture
[7] = final substrate concentration 27.4 μg/ml reaction mixture
[8] = final substrate concentration 41.1 μg/ml reaction mixture
[9] = final substrate concentration 68.4 μg/ml reaction mixture
[10] = final substrate concentration 95.8 μg/ml reaction mixture
[11] = final substrate concentration 137 μg/ml reaction mixture
[12] = final substrate concentration 205 μg/ml reaction mixture

Compound | minimum inhibition concentration (mic) (Rhizoctonia solani) | minimum inhibition concentration (mic) (Aphanomyces cochlioides [1]) | minimum inhibition concentration (mic) (Cercospora beticola) | minimum inhibition concentration (mic) (Pythium ultimum) | final germination in field (Aphanomyces) | speed of germination in field emergence trials (Aphanomyces) | growth of Aphanomyces (Aphanomyces cochlioides [2]) | effect on the growth of Bacillus [3] | effect on Pseudomonads [4] | speed of laboratory germination (4d) (sugar beet seeds; inclusion in pellets) | OD 226 nm using substance as substrate [5, 6] | OD 226 nm using substance as substrate [5, 7] | OD 226 nm using substance as substrate [5, 8] | OD 226 nm using substance as substrate [5, 9] | OD 226 nm using substance as substrate [5, 10] | OD 226 nm using substance as substrate [5, 11] | OD 226 nm using substance as substrate [5, 12] | 4d>15mm germination (sugar beet seeds) | Vmax with AF relative to glucosone ([5]; AF versus natural substrate glucosone)
O=C1C=CCOC1(O)CO (stereo not drawn) [microthecin] | 240 ppm | 1200 ppm | 2400 ppm | 480 ppm | high final germination | comparable with pellets only containing Thiram | able to reduce the growth | no effect | slightly affected | decreases the speed of laboratory germination | – | – | – | – | – | – | – | – | –
O=CC(=O)[C@@H](O)[C@H](O)[C@H](O)CO [Glucosone, D-arabino-hexos-2-ulose] | – | – | – | – | – | – | – | – | – | – | 0.069 | 0.104 | 0.141 | 0.238 | 0.323 | 0.484 | 0.634 | – | –
Cc1cc(O)no1 [Hymexazol] | – | – | – | – | – | germinate relatively slow | – | – | – | – | – | – | – | – | – | – | – | low 4d>15mm germination | –
O=C1CO[C@H](CO)[C@@H](O)[C@@H]1O [AF, 1,5-anhydro-D-fructose] | – | – | – | – | – | – | – | – | – | – | 0.308 | 0.534 | 0.76 | 1.246 | 1.764 | 2.43 | 2.943 | – | around 4.7 times
